Test results taken from patent publication US20040082591A1, “Therapeutic heterocyclic compounds” (priority 2001, published 2004).

biological target: 5-HT1B and 5HT1D receptors; test: not given; settings: saturation studies, guinea pig cortex; 'may result in a measurement of'; read-out: Kd value of [3H]GR125743; cited from earlier work

Compound	Kd
COc1ccc(NC(=O)c2ccc(-c3ccncc3)c(C)c2)cc1N1CCN(C)CC1 [[^3H]-GR125743]	0.046 ± 0.004 nM

system: Hartley guinea pigs; test: Learned helplessness test; type: in vivo, guinea pig; settings: antidepressant/antianxiety activity
Source text: The utility of the compounds for example to treat depression may be shown via a learned helplessness test in guinea pigs, which is used extensively as correlative to antidepressant activity in humans. The learned helplessness test may be carried out as follows: Seventy male Hartley guinea pigs, each weighing about 350-425 gm are fed ad lib, and are housed under a 12-hour light/dark cycle. The procedure consists of two phases: The induction phase and the avoidance training phase. In the induction phase, subjects are placed into standard shuttle cages (20 L×16 W×21 centimeters H) which are fitted with a grid floor. Electrical stimulation (1.25 mA, 10 sec duration) is delivered to the floor of the cage every 90-sec during 1 hour daily sessions. Subjects have no opportunity to escape or to avoid shocks. Induction is conducted for 2 consecutive days.
In avoidance training, testing is also conducted in the shuttle cages, except that the subjects are not returned to the same chamber in which induction had occurred. Additionally, all cages are fitted with a partition with an arch in the center of the cage, through which animals can pass between the left and right halves of the cage. The procedure employed is a standard shuttle avoidance procedure in which a compound, conditioned stimulus (a 10-sec presentation of a tone and turning on of a lamp on the side of the cage that the guinea pig was occupying) serves to indicate presentation of electrical current to the floor of the cage. Shock is presented for a 5 sec period, 5 sec after initiation of the conditioned stimulus. Entry into the opposite side of the shuttle cage via the arched partition prior to shock onset results in the end of the trial (avoidance response). If shock is delivered, entry into the opposite side of the cage results in termination of the shock and CS (escape). Reversal of learned helplessness in the induction subjects correlates to antidepressant activity of the test compound.
Avoidance training, 45-min in duration, is conducted on 2 consecutive days, beginning 48 hr after the final induction session. Seventy subjects are assigned to 1 of 6 groups of 11-12 animals. The groups are as follows:
Groups 2-6 are given induction and avoidance training sessions. Injections are administered immediately following induction sessions and 1 hour prior to avoidance training sessions. A second injection is administered 7-8 hours following the first injection, for a total of 9 injections administered over 5 days. No injections are administered following the final avoidance training session.
Compounds of the present invention may be administered in a volume of 1 mL/kg bwt. Imipramine is dissolved in DI water. The compounds are dissolved in DI water, to which was added a few drops of lactic acid (pH 5.5). […]

Compound	activity in the learned helplessness assay
CCC(=O)N1CCN(c2ccc(NC(=O)c3cc(=O)c4cc(OC)cc(N5CCN(C)CC5)c4o3)cc2)CC1 [Example 44, 6-Methoxy-8-(4-methyl-piperazin-1-yl)-4-oxo-4H-chromene-2-carboxylic Acid [4-(4-propionyl-piperazin-1-yl)-phenyl]-amide]	demonstrate activity
CCC(=O)N1CCN(c2ccc(NC(=O)c3cc(=O)c4cc(F)cc(N5CCN(C)CC5)c4o3)cc2)CC1 [Example 72, 6-flouro-8-(4-methyl-piperazin-1-yl)-4-oxo-4H-chromene-2-carboxylic acid [4-(4-propionyl-piperazin-1-yl)-phenyl]-amide]	demonstrate activity
CCS(=O)(=O)N1CCN(c2ccc(NC(=O)c3cc(=O)c4cc(F)cc(N5CCN(C)CC5)c4o3)cc2)CC1 [Example 71]	demonstrate activity
COc1cc(N2CCN(C)CC2)c2oc(C(=O)Nc3ccc(N4CCOCC4)cc3)cc(=O)c2c1 [Example 31, 6-Methoxy-8-(4-methyl-piperazin-1-yl)-4-oxo-4H-chromene-2-carboxylic acid (4-morpholin-4-yl-phenyl)-amide]	demonstrate activity

system: not given; test: not given; settings: not given

melting point	Compound
215 to 216 °C	CN1CCN(c2cccc3c2OC(C(=O)Nc2ccc(N4CCOCC4)cc2)CC3=O)CC1 (racemic) [Example 78, racemic-8-(4-methyl-piperazin-1-yl)-4-oxo-chroman-2-carboxylic acid (4-morpholin-4-yl-phenyl)-amide]
215 to 216 °C	CN1CCN(c2cccc3c2OC(C(=O)Nc2ccc(N4CCOCC4)cc2)CC3)CC1 (racemic) [Example 75, Racemic-8-(4-Methyl-piperazin-1-yl)-chroman-2-carboxylic acid (4-morpholin-4-yl-phenyl)-amide]
195 to 197 °C	COc1cc(N2CCN(C)CC2)c2oc(C(=O)Nc3ccc(N4CCN(C(=O)CCO)CC4)cc3)cc(=O)c2c1 [Example 68, 6-Methoxy-8-(4-methyl-piperazin-1-yl)-4-oxo-4H-chromene-2-carboxylic Acid {4-[4-(3-hydroxy-propanoyl)-piperazin-1-yl]-phenyl}-amide]
233 to 234 °C	CCS(=O)(=O)N1CCN(c2ccc(NC(=O)c3cc(=O)c4cc(F)cc(N5CCN(C)CC5)c4o3)cc2)CC1 [Example 71]
195 to 199 °C	CN1CCN(c2cc(F)cc3c(=O)cc(C(=O)Nc4ccc(N5CCN(C(=O)CCO)CC5)cc4)oc23)CC1 [Example 73, 6-Fluoro-8-(4-methyl-piperazin-1-yl)-4-oxo-4H-chromene-2-carboxylic Acid {4-[4-(3-hydroxy-propanoyl)-piperazin-1-yl]-phenyl}-amide]
206 to 207 °C	CN1CCN(c2cccc3c2OC(C(=O)Nc2ccc(N4CCOCC4)cc2)CC3)CC1 (single isomer, unassigned; (+)) [Example 76, (+)-8-(4-Methyl-piperazin-1-yl)-chroman-2-carboxylic Acid (4-morpholin-4-yl-phenyl)-amide]
216 °C (dec.)	CN1CCN(c2cccc3c2OC(C(=O)Nc2ccc(N4CCOCC4)cc2)CC3=O)CC1 (single isomer, unassigned) [Example 79, 8-(4-Methyl-piperazin-1-yl)-4-oxo-chroman-2-carboxylic Acid (4-morpholin-4-yl-phenyl)-amide]
158.1 to 158.8 °C	CN1CCN(c2cccc3c(=O)cc(-c4nc5ccc(N6CCOCC6)cc5o4)oc23)CC1 [Example 21, 8-(4-Methyl-piperazin-1-yl)-2-(6-morpholin-4-yl-benzooxazol-2-yl)-chromen-4-one]
217 to 218 °C (dec.)	CN1CCN(c2cccc3c(=O)cc(C(=O)Nc4ccc(N5CCOCC5)cc4)oc23)CC1 [Example 1, 8-(4-methyl-1-piperazinyl)-N-[4-(4-morpholinyl)phenyl]-4-oxo-4H-chromene-2-carboxamide]
215 °C (dec.)	CN1CCN(c2cccc3c2OC(C(=O)Nc2ccc(N4CCOCC4)cc2)CC3=O)CC1 (single isomer, unassigned) [Example 80, 8-(4-Methyl-piperazin-1-yl)-4-oxo-chroman-2-carboxylic Acid (4-morpholin-4-yl-phenyl)-amide]
236 to 238 °C	CCNC(=O)N1CCN(c2ccc(NC(=O)c3cc(=O)c4cc(F)cc(N5CCN(C)CC5)c4o3)cc2)CC1 [Example 81, 4-[4-({1-[6-Fluoro-8-(4-methyl-piperazin-1-yl)-4-oxo-4H-chromen-2-yl]-methanoyl}-amino)-phenyl]-piperazine-1-carboxylic Acid Ethylamide]
205.5 to 207 °C	CN1CCN(c2cccc3c2OC(C(=O)Nc2ccc(N4CCOCC4)cc2)CC3)CC1 (single isomer, unassigned; (-)) [Example 77, (−)-8-(4-Methyl-piperazin-1-yl)-chroman-2-carboxylic Acid (4-morpholin-4-yl-phenyl)-amide]
248.4 to 249.6 °C	CN1CCN(c2cccc3c(=O)cc(C(=O)Nc4ccc(N5CCOCC5)cc4O)oc23)CC1 [Example 22, 8-(4-Methyl-piperazin-1-yl)-4-oxo-4H-chromene-2-carboxylic Acid (2-hydroxy-4-morpholin-4-yl-phenyl)-amide]
234 to 236 °C	COc1cc(N2CCN(C)CC2)c2oc(C(=O)Nc3ccc(N4CCOCC4)cc3)cc(=O)c2c1 [Example 31, 6-Methoxy-8-(4-methyl-piperazin-1-yl)-4-oxo-4H-chromene-2-carboxylic acid (4-morpholin-4-yl-phenyl)-amide]

system: 5-HT1B receptors and 5-HT1D receptors; test: Radioligand competition binding with [3H]-GR125743 on membranes of transfected CHO cells; settings: not given
Source text: Other assays that may be used to measure for example affinity of compounds of the present invention for 5HT1B and 5HT1D receptors are described in J. Med. Chem 41:1218-1235, 1228 (1998) and J. Med. Chem 42:4981-5001, (1999) and incorporated by reference herein. These assays may be used with some modifications: Frozen membrane preparations of a stably transfected chinese hamster ovary (CHO) cell line expressing 5-HT1B receptors and 5-HT1D receptors are thawed rapidly, briefly vortexed, and diluted in assay buffer (AB) containing 50 mM Tris-HCl, 4 mM MgCl2, 4 mM CaCl2, 1 mM EDTA, and adjusted to pH 7.4 with NaOH. Final protein concentrations are—0.185 mg/ml for 5-HT1B, and 0.4 mg/ml for 5-HT1D membranes. Test compounds are evaluated in competition assays using [^3H]-GR125743 (Amersham). The ligand concentration in both assays was 0.27 nM. […] The 5-HT1B and 5-HT1D assays are performed simultaneously on one 96-well assay plate, one drug/compound per plate. Ten serial dilutions (1 uM to 4 pM, final concentration) of compound are prepared in DMSO from 10 mM stock solutions. Incubation mixtures are prepared in quadruplicate in 96-deep well assay plates (Matrix 1 ml). […] The plates are then counted on a Packard TopCount to determine CPM's per well. Ki values are determined for each test compound utilizing the graphic and analytical software package, GraphPad Prism. […]

Compound	Kd
COc1ccc(NC(=O)c2ccc(-c3ccncc3)c(C)c2)cc1N1CCN(C)CC1 [[^3H]-GR125743]	0.15 to 0.25 nM
